Measurements: patent US4454140A, “Nasal administration of dextromethorphan” (Hoffmann-La Roche Inc., priority 1982, dated 1984)
Values joined by “and” are separate entries in the source; they are usually repeats but may differ in a detail not shown here. Equal values may be shown once. Read-outs that look alike come from different tables or passages of the source.

Test: bioavailability of dextromethorphan after nasal, oral and intravenous administration (plasma levels, spectrofluorophotometric)
Assay type: in vivo, female beagle dogs
Settings: for AUC(0-t) at 2 h / concentration at 1 min / concentration at 0.05 h / concentration at 0.1 h / concentration at 0.2 h / concentration at 20 min / concentration at 35 min / concentration at 55 min / concentration at 80 min / concentration at 2 h / bioavailability at 2 h / concentration at 3 h: dog, plasma, 15 mg; for AUC(0-t) at 2 h / AUC 0-120 min., Individual AUC: 15 mg/dog; for concentration at 1 min / concentration at 0.05 h / concentration at 0.1 h / concentration at 0.2 h / concentration at 20 min / concentration at 35 min / concentration at 55 min / concentration at 80 min / concentration at 2 h / concentration at 3 h / Plasma Concentration: HBr salt 15 mg/dog; for bioavailability at 2 h: relative to intravenous, 0-120 min
Protocol: The following study was undertaken to determine the bioavailability of dextromethorphan from nasal solution in comparison with the bioavailability of the drug when administered orally and intravenously.
Three female beagle dogs weighing about 10 kg each were used for the study without fasting. For nasal administration, the dogs were anaesthetized with an intravenous injection of 30 mg/kg of sodium pentobarbital, and 0.5 ml of a warm saline solution containing dextromethorphan (30 mg/ml) was then administered to the nasal cavity through the nostrils with a syringe. For oral administration, the dogs were not anaesthetized and 10 ml of a saline solution containing dextromethorphan hydrobromide (1.5 mg/ml) was administered via a stomach tube. For intravenous administration, the dogs were anaesthetized as noted above, and one ml of a saline solution containing dextromethorphan hydrobromide (15 mg/ml) was injected through the cubital vein.
After nasal, oral, and intravenous administration, blood was sampled from the cubital vein periodically. The blood sample, was centrifuged and 2.5 ml of plasma were analyzed. Plasma levels of dextromethorphan were determined spectrofluorophotometrically by a modification of the method of Ramachander, et al., J. Pharm. Sci., 66, 1047 (1977). Specifically, plasma was transferred into a glass tube, 0.5 ml of a saturated solution of sodium carbonate and 10 ml of ethyl acetate were added, and the contents shaken well. After centrifuging, an aliquot (8 ml) of the supernate was transferred into a glass tube containing 1.5 ml of 1.0N HCl, and was extracted into the acid layer after mixing well and centrifuging. The fluorescence of the acid layer was determined by a spectrofluorophotometer, Aminco-Bowman Ratio II, American Instrument Co. The excitation and emission wave lengths were 278 nm and 306 nm, respectively. Recovery of known amounts of dextromethorphan spiked with dog plasma was 50% of the added concentration. For calculating the drug plasma level, the above correction factor was taken into consideration.
Table I reports the plasma concentration of dextromethorphan after nasal, intravenous, and oral administration of 15 mg/dog of dextromethorphan hydrobromide salt.

With `COc1ccc2c(c1)[C@]13CCCC[C@@H]1[C@H](C2)N(C)CC3` [dextromethorphan, d-3-methoxy-N-methylmorphinan] the AUC(0-t) at 2 h (nasal, average of three dogs, read-out: AUC 0-120 min., Average ± S.E. (converted)) was 472 ng·h/mL, the concentration at 1 min (nasal, dog #1, 1 min) was 72.1 ng/mL and the concentration at 0.05 h (nasal, dog #1, 3 min) was 323 ng/mL. For the same compound, the concentration at 0.1 h (nasal, dog #1, 6 min) was 618 ng/mL, the concentration at 0.2 h (nasal, dog #1, 12 min) was 684 ng/mL and the concentration at 20 min (nasal, dog #1, 20 min) was 503 ng/mL. The concentration at 35 min (nasal, dog #1, 35 min) was 276 ng/mL, the concentration at 55 min (nasal, dog #1, 55 min) was 240 ng/mL and the concentration at 80 min (nasal, dog #1, 80 min) was 201 ng/mL. The concentration at 2 h (nasal, dog #1, 120 min) was 154 ng/mL, the concentration at 1 min (nasal, dog #2, 1 min) was 89.1 ng/mL and the concentration at 0.05 h (nasal, dog #2, 3 min) was 793 ng/mL. For the same compound, the concentration at 0.1 h (nasal, dog #2, 6 min) was 733 ng/mL, the concentration at 0.2 h (nasal, dog #2, 12 min) was 888 ng/mL and the concentration at 20 min (nasal, dog #2, 20 min) was 260 ng/mL. For the same compound, the concentration at 35 min (nasal, dog #2, 35 min) was 201 ng/mL, the concentration at 55 min (nasal, dog #2, 55 min) was 170 ng/mL and the concentration at 80 min (nasal, dog #2, 80 min) was 183 ng/mL. The concentration at 2 h (nasal, dog #2, 120 min) was 141 ng/mL, the concentration at 1 min (nasal, dog #3, 1 min) was 84.2 ng/mL and the concentration at 0.05 h (nasal, dog #3, 3 min) was 428 ng/mL. For the same compound, the concentration at 0.1 h (nasal, dog #3, 6 min) was 493 ng/mL, the concentration at 0.2 h (nasal, dog #3, 12 min) was 385 ng/mL and the concentration at 20 min (nasal, dog #3, 20 min) was 263 ng/mL. For the same compound, the concentration at 35 min (nasal, dog #3, 35 min) was 165 ng/mL, the concentration at 55 min (nasal, dog #3, 55 min) was 129 ng/mL and the concentration at 80 min (nasal, dog #3, 80 min) was 93.3 ng/mL. It also gave a concentration at 2 h (nasal, dog #3, 120 min) of 108 ng/mL, an AUC(0-t) at 2 h (nasal, individual dogs, read-out: AUC 0-120 min., Individual AUC (converted)) of 568 ng·h/mL and a bioavailability at 2 h (nasal) of 110%. It also gave a bioavailability at 2 h (oral) of 30.2%, a concentration at 1 min (iv, dog #1, 1 min) of 1530 ng/mL and a concentration at 0.05 h (iv, dog #1, 3 min) of 927 ng/mL. For the same compound, the concentration at 0.1 h (iv, dog #1, 6 min) was 708 ng/mL, the concentration at 0.2 h (iv, dog #1, 12 min) was 482 ng/mL and the concentration at 20 min (iv, dog #1, 20 min) was 331 ng/mL. The concentration at 35 min (iv, dog #1, 35 min) was 296 ng/mL, the concentration at 55 min (iv, dog #1, 55 min) was 171 ng/mL and the concentration at 80 min (iv, dog #1, 80 min) was 134 ng/mL. It also gave a concentration at 2 h (iv, dog #1, 120 min) of 144 ng/mL, a concentration at 1 min (iv, dog #2, 1 min) of 1590 ng/mL and a concentration at 0.05 h (iv, dog #2, 3 min) of 952 ng/mL. For the same compound, the concentration at 0.1 h (iv, dog #2, 6 min) was 532 ng/mL, the concentration at 0.2 h (iv, dog #2, 12 min) was 349 ng/mL and the concentration at 20 min (iv, dog #2, 20 min) was 229 ng/mL. The concentration at 35 min (iv, dog #2, 35 min) was 166 ng/mL, the concentration at 55 min (iv, dog #2, 55 min) was 146 ng/mL and the concentration at 80 min (iv, dog #2, 80 min) was 165 ng/mL. It also gave a concentration at 2 h (iv, dog #2, 120 min) of 141 ng/mL, a concentration at 1 min (iv, dog #3, 1 min) of 1490 ng/mL and a concentration at 0.05 h (iv, dog #3, 3 min) of 907 ng/mL. For the same compound, the concentration at 0.1 h (iv, dog #3, 6 min) was 430 ng/mL, the concentration at 0.2 h (iv, dog #3, 12 min) was 322 ng/mL and the concentration at 20 min (iv, dog #3, 20 min) was 187 ng/mL. For the same compound, the concentration at 35 min (iv, dog #3, 35 min) was 102 ng/mL, the concentration at 55 min (iv, dog #3, 55 min) was 81.4 ng/mL and the concentration at 80 min (iv, dog #3, 80 min) was 46.2 ng/mL. It also gave a concentration at 2 h (iv, dog #3, 120 min) of 37.3 ng/mL, an AUC(0-t) at 2 h (iv, intravenous, average of three dogs, read-out: AUC 0-120 min., Average ± S.E. (converted)) of 431 ng·h/mL and an AUC(0-t) at 2 h (iv, intravenous, individual dogs, read-out: AUC 0-120 min., Individual AUC (converted)) of 537 ng·h/mL. It also gave a concentration at 20 min (po, dog #1, 20 min) of 7.5 ng/mL, a concentration at 35 min (po, dog #1, 35 min) of 43.4 ng/mL and a concentration at 55 min (po, dog #1, 55 min) of 73.6 ng/mL. It also gave a concentration at 80 min (po, dog #1, 80 min) of 80.1 ng/mL, a concentration at 2 h (po, dog #1, 120 min) of 74.7 ng/mL and a concentration at 3 h (po, dog #1, 180 min) of 63.3 ng/mL. It also gave a concentration at 0.1 h (po, dog #2, 6 min) of 18.5 ng/mL, a concentration at 0.2 h (po, dog #2, 12 min) of 40 ng/mL and a concentration at 20 min (po, dog #2, 20 min) of 62.9 ng/mL. For the same compound, the concentration at 35 min (po, dog #2, 35 min) was 94.4 ng/mL, the concentration at 55 min (po, dog #2, 55 min) was 92.3 ng/mL and the concentration at 80 min (po, dog #2, 80 min) was 86.8 ng/mL. The concentration at 2 h (po, dog #2, 120 min) was 86 ng/mL, the concentration at 3 h (po, dog #2, 180 min) was 85.7 ng/mL and the concentration at 20 min (po, dog #3, 20 min) was 18.4 ng/mL. The concentration at 35 min (po, dog #3, 35 min) was 47.6 ng/mL, the concentration at 55 min (po, dog #3, 55 min) was 65 ng/mL and the concentration at 80 min (po, dog #3, 80 min) was 95.5 ng/mL. The concentration at 2 h (po, dog #3, 120 min) was 91.5 ng/mL, the concentration at 3 h (po, dog #3, 180 min) was 53.4 ng/mL and the AUC(0-t) at 2 h (po, oral, average of three dogs, read-out: AUC 0-120 min., Average ± S.E. (converted)) was 130 ng·h/mL. For the same compound, the AUC(0-t) at 2 h (po, oral, individual dogs, read-out: AUC 0-120 min., Individual AUC (converted)) was 110 ng·h/mL, the “AUC 0-120 min., Individual AUC” value (intravenous, individual dogs) was 27597.7 ng eq. ml-^1 min and 17668.5 ng eq. ml-^1 min and the “absorption after nasal administration vs standard oral route” value (nasal vs oral) was “more rapid and more complete absorption”. The “blood level after nasal administration” value (nasal, 15 mg dose, about 5 minutes to about 2 hours, vs injected dose (FIG. 1)) was “blood levels comparable to an injected dose”, the “AUC 0-120 min., Individual AUC” value (nasal, individual dogs) was 30735.4 ng eq. ml-^1 min and 20139.0 ng eq. ml-^1 min and the “Plasma Concentration” value (oral, dog #1, 1 min) was 0 ng eq./ml. The “Plasma Concentration” value (oral, dog #1, 3 min) was 0 ng eq./ml, the “Plasma Concentration” value (oral, dog #1, 6 min) was 0 ng eq./ml and the “Plasma Concentration” value (oral, dog #1, 12 min) was 0 ng eq./ml. For the same compound, the “Plasma Concentration” value (oral, dog #2, 1 min) was 0 ng eq./ml, the “Plasma Concentration” value (oral, dog #2, 3 min) was 0 ng eq./ml and the “Plasma Concentration” value (oral, dog #3, 1 min) was 0 ng eq./ml. The “Plasma Concentration” value (oral, dog #3, 3 min) was 0 ng eq./ml, the “Plasma Concentration” value (oral, dog #3, 6 min) was 0 ng eq./ml and the “Plasma Concentration” value (oral, dog #3, 12 min) was 0 ng eq./ml. The “AUC 0-120 min., Individual AUC” value (oral, individual dogs) was 9356.5 ng eq. ml-^1 min and 7441.6 ng eq. ml-^1 min and the “blood level after oral administration” value (oral, same dosage level (15 mg), FIG. 1) was “considerably lower blood levels”.
